Results: US10329304B2, “Compounds and methods for inhibition of hedgehog signaling and phosphodiesterase” (Vanderbilt University, priority 2014, dated 2019)

Assays:
[1] = tested on: Hedgehog signaling (Gli-Luc reporter); test: Hh Gli-Luciferase reporter assay in Shh-Light2 cells; type: cell-based, mouse; conditions: for EC50: Mus musculus, Shh Light2, Table 9B, read-out: Shh Light2 Luc EC50
Method: For Hh signaling assays, Shh-Light2 cells stably transfected with Gli-Luciferase reporter construct were used along with Shh-conditioned media, as previously described^7. Alternatively, 3 μM purmorphamine or 20 nM Smoothened agonist (SAG) (Santa Cruz Biotechnology, Santa Cruz, Calif.) was used to induce Hh signaling. Reporter cells were seeded in 96-well plates and incubated overnight with the various concentrations of eggmanone and Shh-conditioned media. To assess the effects of overexpression of Gli-2, PDE4D3 and DN-PDE4D3 on Hh signaling, mammalian expression vectors containing these constructs were transfected into Shh-Light2 cells in 96-well plates using Fugene6 (Roche), according to manufacturer's instructions. The transfected or Shh-stimulated cells were incubated overnight with the various concentrations of compound. The cells were then lysed, and cell extracts were subjected to Steady-Glo luciferase assay (Promega) according to manufacturer's instructions. The results were normalized to cell titer, as determined using Cell Titer-Glo luminescence assay (Promega).

[2] = tested on: zebrafish embryos; test: Zebrafish embryo phenotypic assay (ZF); type: in vivo; conditions: wild-type embryonic zebrafish, dosed 5 hpf
Method: All zebrafish experiments were approved by Vanderbilt University Institutional Animal Care and Use Committee. Wild-type zebrafish of AB strain were maintained using standard protocols. Chemical screen for small molecules was performed as previously described. Briefly, pairs of zebrafish were mated, and fertilized eggs were arrayed in 96-well microtiter plates (5 embryos/well) containing 250 μl E3 water. At ˜4-hpf, small molecule library from Vanderbilt High Throughput Screening Facility was added to each well to the final concentration of 5 μM. Embryos were incubated at 28.5° C. until 24 and 48-hpf, when they were examined for gross morphologic changes indicative of disruption in embryonic patterning. A total of ˜30,000 compounds were screened.
ZF refers to wild-type embryonic zebrafish phenotypic assay involving dosing n=˜10 embryos in E3 egg water with compound from either a stock of 1 mM or 10 mM in DMSO at 5 hours post-fertilization and observing at 24, 48, and 72 hours post-fertilization.

[3] = tested on: Gli1 mRNA; test: Hh % Inh.: SAG-induced Gli1 expression in C3H10T½ cells (qPCR); type: cell-based; conditions: Mus musculus, C3H 10T1/2, SAG-induced (100 nM), 24 hours; for inhibition at 1 µM: 1 pM [sic], read-out: C3H10T1/2 qPCR, Gh1 mRNA % Inh., 1 pM; for inhibition at 10 µM: 10 pM [sic], read-out: C3H10T1/2 qPCR, Gh1 mRNA % Inh., 10 pM
Method: Compounds are dosed from 10 mM DMSO stock solutions, and mRNA is isolated after 24 hours of compound treatment. mRNA is reverse transcribed to produce cDNA which is quantified by quantitative polymerase chain reaction (qPCR) in triplicate and levels are normalized to GAPDH levels. Data is presented as percent inhibition compared to positive control (SAG).

[4] = tested on: Hedgehog signaling (TM3-Gli-Luc); test: TM3-Gli-Luc luciferase reporter assay stimulated with 20 nM SAG; type: cell-based; conditions: Table 9A; read-out: TM3 G8 Luciferase EC 50
Method: TM3-Gli-Luc cells were maintained on sterile 0.1% gelatin (from porcine skin, Type A, prepared in MilliQ water, autoclaved, then sterile-filtered) in 1:1 Dulbecco's Modified Eagle Medium (DMEM)/F12 supplemented with 5% horse serum, 2.5% fetal bovine serum (FBS), and 15 mM HEPES, hereafter referred to as TM3 Culture Medium. For small molecule evaluation, TM3-Gli-Luc cells were assayed on 0.1% gelatin in DMEM/F12 supplemented with 2.5% FBS and 15 mM HEPES, hereafter referred to as TM3Luc Medium. Sufu^−/− cells were maintained in DMEM supplemented with 4.5 g/L D-glucose, L-glutamine, 25 mM HEPES, and 10% FBS, hereafter referred to as D10 FBS. For small molecule evaluation, Sufu^−/− cells were assayed in DMEM supplemented with 4.5 g/L D-glucose, L-glutamine, 25 mM HEPES, and 0.5% FBS, hereafter referred to as D0.5 FBS. All cells were cultured at 37° C. with a 5% CO2 atmosphere.
On the day of cell plating, 96-well plates were coated with 50 μL/well of sterile 0.1% gelatin for 5 minutes then aspirated and replaced with 50 μL/well of TM3 Culture Medium. TM3-Gli-Luc cells were seeded at a density of 5,000 cells/well in TM3 Culture Medium and incubated for 24 hours. A master mix of 20 nM SAG in TM3Luc Medium was prepared, and small molecule solutions were prepared by adding the desired amount of compound from 10 mM DMSO stock to TM3Luc Medium containing 20 nM SAG. Negative control was prepared by adding an equi-volume amount of DMSO as compared to small molecule treated conditions to TM3Luc Medium not containing SAG. Cell plating medium was aspirated and replaced with 100 μL/well of prepared small molecule-containing media, and plates were incubated for 48 hours before proceeding to luciferase activity and cell viability reading.
TM3Luc Medium from compound treated plates was aspirated and replaced with 82 μL/well of Glo Lysis Buffer (Promega, Madison, Wis., USA), and plates were shaken at 300 rpm and room temperature for 12 minutes. Lysate was split between two white 96-well plates, 45 μL/well and 25 μL/well for luciferase reading and cell viability respectively. For luciferase activity monitoring, 45 μL/well of Steady Glo (Promega, Madison, Wis., USA) was added to 45 μL/well of cell lysate, incubated at room temperature for 5 minutes, then luminescence was measured on a Turner Biosystems Modulus Microplate Reader (Sunnyvale, Calif., USA) with an integration time of 0.5 seconds. For cell viability measurement, 25 μL/well of Cell Titer Glo (Promega, Madison, Wis., USA) (prepared by 1:10 dilution with Glo Lysis Buffer) was added to 25 μL/well of cell lysate, incubated at room temperature for 5 minutes, then luminescence was measured as above.
Luciferase activity data (Steady Glo) was divided by corresponding cell viability data (Cell Titer Glo) to arrive at a live cell number-normalized luciferase activity reading. The average of negative control data (DMSO treated) was subtracted from all wells, and percent activity was calculated by dividing all wells by the positive control (SAG treated) average. […] At least two independent assays tested on separate days were averaged to provide EC50±standard error of the mean.

| Structure (SMILES) | ZF Phenotype EC100 [2] [µM] | inhibition at 10 µM [3] [%] | EC50 [4] [µM] | other results |
| --- | --- | --- | --- | --- |
| C=CCn1c(SCC(=O)c2ccc(-c3ccccc3)cc2)nc2sc3c(c2c1=O)CCCC3 [Formula (20)] | – | – | – | Hh Inhibition Assay (EC50, μM) ([1]; Table 8): Inactive |
| C=C(C)Cn1c(SC)nc2sc3c(c2c1=O)CCCC3 [HI272] | – | – | – | EC50 [1]: > 10 µM |
| CCn1c(SCC(=O)c2ccccc2)nc2sc3c(c2c1=O)CCC3 [HI598] | – | – | – | EC50 [1]: > 10 µM |
| C=CCn1c(SCC(=O)c2ccc(C)cc2)nc2sc3c(c2c1=O)CCCC3 [HI612] | – | – | – | EC50 [1]: > 10 µM |
| C=CCn1c(SCC(=O)c2ccc(F)cc2)nc2sc3c(c2c1=O)CCCC3 [HI682] | – | – | – | EC50 [1]: > 10 µM |
| CCn1c(SCC(=O)c2ccccc2)nc2sc(C)c(C)c2c1=O [HI864] | – | – | – | EC50 [1]: > 10 µM |
| C=CCn1c(SCC(=O)O)nc2sc3c(c2c1=O)CCCC3 [HI918] | – | – | – | EC50 [1]: > 10 µM |
| CCn1c(SCC(=O)c2ccc(Br)cc2)nc2sc3c(c2c1=O)CCC3 [HI2863] | – | – | – | EC50 [1]: > 10 µM |
| C=C(C)Cn1c(SCC(=O)c2cccs2)nc2sccc2c1=O [JEH-1-054] | >50 | 50.4 | 1.1 | inhibition at 1 µM [3]: 19.6% |
| C=C(C)Cn1c(SCC(=O)c2cccs2)nc2sc3c(c2c1=O)CCNC3 [JEH-1-064] | >50 | 64.1 | 7.06 | – |
| O=C(CSc1nc2sccc2c(=O)n1C1CC1)c1cccs1 [JEH-1-065-2] | 10 | – | 1.09 | – |
| O=C(CSc1nc2ccccc2c(=O)n1C1CC1)c1cccs1 [JEH-1-134] | 1 | – | 0.713 | – |
| O=C(CSc1nc2ncccc2c(=O)n1C1CC1)c1cccs1 [JEH-1-137] | >50 | – | 3.32 | – |
| C=C(C)Cn1c(SCC(=O)c2cccs2)nc2ccccc2c1=O [JEH-1-146-1] | 10 | 68.9 | > 50 | – |
| C=C(C)Cn1c(SCC(=O)c2cccs2)nc2ncccc2c1=O [JEH-1-146-2] | >50 | 28.7 | 11.2 | – |
| O=C(CSc1nc2sc3c(c2c(=O)n1C1CC1)CCOC3)c1cccs1 [JEH-1-161-1] | 0.5 | – | 19.1 | – |
| O=C(CSc1nc2sc3c(c2c(=O)n1C1CC1)CCSC3)c1cccs1 [JEH-1-161-2] | 1 | – | 9.55 | – |
| O=C(CSc1nc2sc3c(c2c(=O)n1C1CC1)CCCC3)c1ccncc1 [JEH-1-163-2] | >50 | – | 3.79 | – |

| Structure (SMILES) | ZF Phenotype EC100 [2] [µM] | inhibition at 10 µM [3] [%] | EC50 [4] [µM] | other results |
| --- | --- | --- | --- | --- |
| Cc1ccc(CSc2nc3sccc3c(=O)n2C2CC2)cc1 [JEH-1-190-3] | >50 | – | 5.01 | – |
| O=C(CSc1nc2sccc2c(=O)n1CC1CC1)c1cccnc1 [JEH-2-022-2] | 25 | – | 3.16 | – |
| O=C(CSc1nc2ccsc2c(=O)n1C1CC1)c1cccs1 [JEH-2-069-2] | 48 | – | 1.11 | – |
| C=C(C)Cn1c(SCC(=O)c2cccs2)nc2cnccc2c1=O [JEH-2-088] | – | 24.2 | 14.1 | – |
| C=C(C)Cn1c(SCC(=O)c2cccs2)nc2sc3c(c2c1=O)CCN(C(=O)c1ccco1)C3 [JEH-2-105] | – | 54.9 | – | – |
| C=C(C)Cn1c(SCC(=O)c2cccs2)nc2sc3c(c2c1=O)CCOC3 [JEH-2-120-1] | – | 82.9 | 30.2 | – |
| CC(C)n1c(SCC(=O)c2cccs2)nc2sc3c(c2c1=O)CCCC3 [JEH-3-031] | – | 101 | – | inhibition at 1 µM [3]: 11.7% |
| CC(C)Cn1c(SCC(=O)c2cccs2)nc2sc3c(c2c1=O)CCCC3 [JEH-3-038-2] | – | 102 | – | inhibition at 1 µM [3]: 27.8% |
| CC(C)(O)Cn1c(SCC(=O)c2cccs2)nc2sc3c(c2c1=O)CCCC3 [JEH-3-038-3] | – | 14.8 | – | inhibition at 1 µM [3]: 24.4% |
| C=C(C)Cn1c(SCC(=O)c2cccnc2)nc2sc3c(c2c1=O)CCCC3 [JEH-3-045-3] | – | 43.6 | 10.5 | – |
| O=C(CSc1nc2sc3c(c2c(=O)n1CC1CCC1)CCCC3)c1cccs1 [JEH-3-056-1] | 1 | 67.2 | 7.08 | inhibition at 1 µM [3]: 14.7% |
| CC(C)(C)Cn1c(SCC(=O)c2cccs2)nc2sc3c(c2c1=O)CCCC3 [JEH-3-056-2] | – | 84.8 | – | inhibition at 1 µM [3]: 13.1% |
| O=C(CSc1nc2sc3c(c2c(=O)n1Cc1ccccc1)CCCC3)c1cccs1 [JEH-3-058-2] | – | 18.3 | – | – |
| C=C(C)Cn1c(SCC(=O)N2CCCC(C)C2)nc2sc3c(c2c1=O)CCCC3 (stereo not shown) [JEH-3-120-1] | – | 106 | – | inhibition at 1 µM [3]: 28.7% |
| C=C(C)Cn1c(SC)nc2sc3c(c2c1=O)CCCC3 [JEH-3-146] | – | 83.9 | 23.9 | inhibition at 1 µM [3]: 48.4% |
| O=C(CSc1nc2sc3c(c2c(=O)n1C1CC1)CCNC3)c1ccccc1 [KYK-1-57] | >50 | – | 8.55 | – |
| CN1CCc2c(sc3nc(SCC(=O)c4ccccc4)n(C4CC4)c(=O)c23)C1 [KYK-1-76] | >50 | – | 5.13 | – |
| CCCN1CCc2c(sc3nc(SCC(=O)c4ccccc4)n(C4CC4)c(=O)c23)C1 [KYK-1-100] | >50 | – | 4.67 | – |
